Experimental data taken from patent US12239729B2, “TRPV3 agonists for the treatment of skin conditions” (Soricimed Biopharma Inc., priority 2012, dated 2025).
Entries after “also recorded” stand apart in the source; their conditions may differ. Peptide text beside a SMILES is read from it.

How the values were obtained:
[1] = target: T1, TRPV3 channels expressed in HEK-293 cells (Homo sapiens, UniProt Q8NET8); assay: Patch-clamp testing of TRPV3 channel activity in transfected HEK-293 cells; type: cell-based
T1 construct: expressed in transfected cells; host or cells: HEK-293 cells, transient transfection
T1 sequence (Q8NET8 1-790): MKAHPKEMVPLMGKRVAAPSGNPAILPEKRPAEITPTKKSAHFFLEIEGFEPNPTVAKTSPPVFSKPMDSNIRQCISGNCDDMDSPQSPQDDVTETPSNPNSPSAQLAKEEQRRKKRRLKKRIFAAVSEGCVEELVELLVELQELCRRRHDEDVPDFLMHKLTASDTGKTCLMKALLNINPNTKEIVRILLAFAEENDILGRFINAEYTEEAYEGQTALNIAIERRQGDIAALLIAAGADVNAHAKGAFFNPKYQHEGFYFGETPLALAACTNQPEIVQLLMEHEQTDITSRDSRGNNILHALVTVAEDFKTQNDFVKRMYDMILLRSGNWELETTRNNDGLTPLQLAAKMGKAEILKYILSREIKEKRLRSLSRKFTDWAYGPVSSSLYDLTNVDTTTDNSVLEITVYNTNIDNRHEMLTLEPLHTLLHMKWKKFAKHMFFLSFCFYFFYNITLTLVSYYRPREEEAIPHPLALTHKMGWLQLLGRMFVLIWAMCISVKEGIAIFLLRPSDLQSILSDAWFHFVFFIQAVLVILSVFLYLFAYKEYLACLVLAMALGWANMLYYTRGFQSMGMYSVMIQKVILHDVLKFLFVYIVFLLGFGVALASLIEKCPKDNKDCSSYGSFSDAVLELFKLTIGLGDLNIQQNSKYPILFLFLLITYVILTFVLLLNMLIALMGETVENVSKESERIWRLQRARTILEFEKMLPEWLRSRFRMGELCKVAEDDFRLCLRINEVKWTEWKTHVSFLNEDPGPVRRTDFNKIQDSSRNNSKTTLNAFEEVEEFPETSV
Method: SOR-C13, SOR-C27 and SOR-N54 were tested using a patch clamp screen to determine whether the peptide had any effect on the channel activity of TRPV3. Ruthenium red, a known antagonist of TRPV3 and 2-Aminoethoxydiphenyl Borate (2-APB) a known activator of TRPV3 were used as controls.
HEK 293 cells were maintained in ϕ30 mm cell culture plate in DMEM media supplemented with 10% fetal bovine serum and penicillin/streptomycin. Cells were grown in a humidified atmosphere of 95% air/5% CO2 at 37° C. in a cell culture incubator.
The cells from 70-90% confluence were prepared for transfection. For transient expression in HEK-293 cells 1 μg plasmid cDNA and pEGFP (in vivo reporter of gene expression) were used.
Recordings were performed at 20˜23° C. Currents were sampled using Digidata 1440A, amplified, and filtered at 2 kHz using Axopatch 200B, then acquired and analyzed using pClamp 10.0 (Molecular Devices, Sunny vales, CA, USA).
The pipette solution and bath solution contained 140 mM CsCl, 4 mM MgCl2, 10 mM EGTA, CsOH pH=7.3 and 130 mM NaCl, 5 mM KCl, 2 mM CaCl2), 1 mM MgCl2, 25 mM HEPES, 30 mM Glucose, pH=7.3, respectively.
Each peptide was diluted in the bath solution to the desired concentration (0.01 μM, 0.03 μM, 0.1 μM, 0.3 μM, 1 μM, 3 μM, or 10 μM), respectively.

HaCaT cells [2] = assay: Cell death assay in HaCaT cells with SOR-C13 fragments (Example 5); type: cell-based, human; conditions: 100 and 1000 μM tested, 72 hours
Method: Solutions of each of the peptides listed in Table 2 were made based on formulation weight without correction of purity in PBS at a 100 mM stock concentration. Stock solutions were sterilized by passing through a 0.2 μm syringe filter prewashed with PBS. Stocks of peptides were kept in aliquots at −20° C. during the study. Glycolic acid was made in a 5M stock in PBS and filtered using a 0.2 μm syringe filter and kept at −20° C.
Human immortalized keratinocyte HaCaT cells were cultured as described in Example 3.
HaCaT cells were plated at ˜8×10^5/well in each well of the 12-well tissue culture plates in triplicates in 2 ml culture media. Twenty-four (24) hours post-plating, cells were treated with PBS, or peptide stocks at 100 and 1000 μM (in triplicates), or glycolic acid at 20 mM (single data point). The Cell Death Assay was otherwise performed as described in Example 3.

HaCaT cells [3] = assay: Wound healing assay in HaCaT cells with SOR-C13 fragments (Example 5); type: cell-based, human; conditions: 24 hours
Method: HaCaT cells were plated at 1.6×10^5 per well in 24-well tissue culture plates in 1 ml of DMEM low glucose medium with 10% FBS. After 3 days, when the cells in each well were ˜100% confluent, a gap at the bottom of each well was generated by scratching with a sterile pipette tip. Supernatant was aspirated and cells were washed gently once with PBS. Fresh media (MEGM Bullet Kit, (Lonza, Cat. #CC-3150) containing bovine pituitary extracts (BPE), hEGF, insulin, and hydrocortisone was added after the wash with peptides. After 24 hours, cells were fixed with 2% paraformaldehyde with 15-minute incubation. Fixed cells were rinsed with PBS. Cells in each well were then examined under the microscope to semi-quantify the gap closure by cell migration. A digital camera fixed to the microscope was used to capture images of cells. The width of gap was measured by a ruler semi-quantitatively on the image. Under visual inspection, the wound healing results were also scored as “−”; “+”; “++”; or “+++” using the same criteria as set out in Example 4.
The effect of the peptides on tissue repair was determined using a wound healing assay that measures the migration of HaCaT cells. Gap size prior to and after treatment was semi-quantified by measuring the size of each gap on a digital photograph of the cells.

CC(C)C[C@H](NC(=O)[C@H](Cc1ccccc1)NC(=O)[C@H](CCC(=O)O)NC(=O)[C@@H](N)CCCCN)C(=O)N[C@@H](Cc1cnc[nH]1)C(=O)N1CCC[C@H]1C(=O)N[C@@H](CO)C(=O)N[C@@H](CCCCN)C(=O)N[C@H](C(=O)N[C@@H](CC(=O)O)C(=O)N[C@@H](CC(C)C)C(=O)N1CCC[C@H]1C(=O)N[C@@H](CCCNC(=N)N)C(=O)O)C(C)C [SOR-C13, KEFLHPSKVDLPR] (H-KEFLHPSKVDLPR-OH)
EC50 [1]: 21.7 nM
induction of cell death (words) (HaCaT cells [2]): no significant effect to induce cell death; also recorded: no increase in cell death above the PBS treatment
wound healing response, gap closure (HaCaT cells [3]; 1000 μM): no response
concentration dependence of wound healing response / gap closure (HaCaT cells [3]; 10, 100 and 1000 μM): lower concentrations of SOR-C13 are more effective than higher concentrations; also recorded: lower concentrations are more effect than higher concentrations
wound healing response, gap closure (HaCaT cells [3]; two lowest concentrations (10 and 100 μM)): very good response
